Patent US12162840B2, “Herbicidal compositions” (SYNGENTA PARTICIPATIONS AG, priority 2018, dated 2024)

System: cool season plant species
Assay: B2 Post-emergence efficacy Test 2, cool season plant species
Format: in vivo
Conditions: 15 days after application, 0=no damage, 100=total kill
Method: Seeds of a variety of test species (see Table B1) were sown in standard soil in pots. After cultivation for 12 days (post-emergence) under controlled conditions in a glasshouse (at 24/18° C. or 20/16° C., at day/night; 16 hours light; 65% humidity), the plants were sprayed with an aqueous spray solution derived from the formulation of the technical active ingredient dissolved in IF50 (see Table B2 for composition) and adjuvant (Genapol XO80) was added to the spray solution at a rate of 0.2% v/v. [table] [table] After application, the test plants were grown in a glasshouse under controlled conditions (as above) and watered twice daily. Herbicidal activity was evaluated 15 days after application on a 0-100 scale. The results, where 0=no damage to test plant and 100=total kill of test plant are shown below in Tables 6 to 9.

Cc1nn(C)c(=O)c(-c2c(F)ccc(Cl)c2CCc2ccc(F)cc2)c1OC(=O)C(C)C [Compound 1.125]
Herbicidal activity (0-100 scale) ALOMY (15 g/Ha): 10 | Herbicidal activity (0-100 scale) ALOMY (30 g/Ha): 10 | Herbicidal activity (0-100 scale) ALOMY (60 g/Ha): 30 | Herbicidal activity (0-100 scale) ALOMY (125 g/Ha): 30 | Herbicidal activity (0-100 scale) ALOMY (250 g/Ha): 60 | Herbicidal activity (0-100 scale) ALOMY (500 g/Ha): 40 | Herbicidal activity (0-100 scale) AVEFA (15 g/Ha): 30 | Herbicidal activity (0-100 scale) AVEFA (30 g/Ha): 40 | Herbicidal activity (0-100 scale) AVEFA (60 g/Ha): 60 | Herbicidal activity (0-100 scale) AVEFA (125 g/Ha): 70 | Herbicidal activity (0-100 scale) AVEFA (250 g/Ha): 70 | Herbicidal activity (0-100 scale) AVEFA (500 g/Ha): 80 | Herbicidal activity (0-100 scale) BEAVA (15 g/Ha): 70 | Herbicidal activity (0-100 scale) BEAVA (30 g/Ha): 60 | Herbicidal activity (0-100 scale) BEAVA (60 g/Ha): 60 | Herbicidal activity (0-100 scale) BEAVA (125 g/Ha): 70 | Herbicidal activity (0-100 scale) BEAVA (250 g/Ha): 70 | Herbicidal activity (0-100 scale) BEAVA (500 g/Ha): 70 | Herbicidal activity (0-100 scale) BROTE (15 g/Ha): 0 | Herbicidal activity (0-100 scale) BROTE (30 g/Ha): 0 | Herbicidal activity (0-100 scale) BROTE (60 g/Ha): 0 | Herbicidal activity (0-100 scale) BROTE (125 g/Ha): 0 | Herbicidal activity (0-100 scale) BROTE (250 g/Ha): 10 | Herbicidal activity (0-100 scale) BROTE (500 g/Ha): 10 | Herbicidal activity (0-100 scale) BRSNN (15 g/Ha): 80 | Herbicidal activity (0-100 scale) BRSNN (30 g/Ha): 80 | Herbicidal activity (0-100 scale) BRSNN (60 g/Ha): 80 | Herbicidal activity (0-100 scale) BRSNN (125 g/Ha): 90 | Herbicidal activity (0-100 scale) BRSNN (250 g/Ha): 90 | Herbicidal activity (0-100 scale) BRSNN (500 g/Ha): 90 | Herbicidal activity (0-100 scale) CHEAL (15 g/Ha): 90 | Herbicidal activity (0-100 scale) CHEAL (30 g/Ha): 90 | Herbicidal activity (0-100 scale) CHEAL (60 g/Ha): 90 | Herbicidal activity (0-100 scale) CHEAL (125 g/Ha): 90 | Herbicidal activity (0-100 scale) CHEAL (250 g/Ha): 90 | Herbicidal activity (0-100 scale) CHEAL (500 g/Ha): 90 | Herbicidal activity (0-100 scale) GALAP (30 g/Ha): 20 | Herbicidal activity (0-100 scale) GALAP (60 g/Ha): 20 | Herbicidal activity (0-100 scale) GALAP (125 g/Ha): 30 | Herbicidal activity (0-100 scale) GALAP (250 g/Ha): 40 | Herbicidal activity (0-100 scale) GALAP (500 g/Ha): 70 | Herbicidal activity (0-100 scale) HORVW (15 g/Ha): 0 | Herbicidal activity (0-100 scale) HORVW (30 g/Ha): 0 | Herbicidal activity (0-100 scale) HORVW (60 g/Ha): 10 | Herbicidal activity (0-100 scale) HORVW (125 g/Ha): 10 | Herbicidal activity (0-100 scale) HORVW (250 g/Ha): 10 | Herbicidal activity (0-100 scale) HORVW (500 g/Ha): 10 | Herbicidal activity (0-100 scale) KCHSC (15 g/Ha): 0 | Herbicidal activity (0-100 scale) KCHSC (30 g/Ha): 20 | Herbicidal activity (0-100 scale) KCHSC (60 g/Ha): 30 | Herbicidal activity (0-100 scale) KCHSC (125 g/Ha): 50 | Herbicidal activity (0-100 scale) KCHSC (250 g/Ha): 60 | Herbicidal activity (0-100 scale) KCHSC (500 g/Ha): 70 | Herbicidal activity (0-100 scale) LOLPE (15 g/Ha): 40 | Herbicidal activity (0-100 scale) LOLPE (30 g/Ha): 50 | Herbicidal activity (0-100 scale) LOLPE (60 g/Ha): 60 | Herbicidal activity (0-100 scale) LOLPE (125 g/Ha): 70 | Herbicidal activity (0-100 scale) LOLPE (250 g/Ha): 80 | Herbicidal activity (0-100 scale) LOLPE (500 g/Ha): 90 | Herbicidal activity (0-100 scale) POAAN (15 g/Ha): 0 | Herbicidal activity (0-100 scale) POAAN (30 g/Ha): 10 | Herbicidal activity (0-100 scale) POAAN (60 g/Ha): 20 | Herbicidal activity (0-100 scale) POAAN (125 g/Ha): 60 | Herbicidal activity (0-100 scale) POAAN (250 g/Ha): 70 | Herbicidal activity (0-100 scale) POAAN (500 g/Ha): 60 | Herbicidal activity (0-100 scale) POLCO (15 g/Ha): 90 | Herbicidal activity (0-100 scale) POLCO (30 g/Ha): 90 | Herbicidal activity (0-100 scale) POLCO (60 g/Ha): 90 | Herbicidal activity (0-100 scale) POLCO (125 g/Ha): 90 | Herbicidal activity (0-100 scale) POLCO (250 g/Ha): 90 | Herbicidal activity (0-100 scale) POLCO (500 g/Ha): 90 | Herbicidal activity (0-100 scale) SINAR (15 g/Ha): 60 | Herbicidal activity (0-100 scale) SINAR (30 g/Ha): 60 | Herbicidal activity (0-100 scale) SINAR (60 g/Ha): 80 | Herbicidal activity (0-100 scale) SINAR (125 g/Ha): 90 | Herbicidal activity (0-100 scale) SINAR (250 g/Ha): 90 | Herbicidal activity (0-100 scale) SINAR (500 g/Ha): 90 | Herbicidal activity (0-100 scale) STEME (15 g/Ha): 90 | Herbicidal activity (0-100 scale) STEME (30 g/Ha): 90 | Herbicidal activity (0-100 scale) STEME (60 g/Ha): 90 | Herbicidal activity (0-100 scale) STEME (125 g/Ha): 90 | Herbicidal activity (0-100 scale) STEME (250 g/Ha): 90 | Herbicidal activity (0-100 scale) STEME (500 g/Ha): 90 | Herbicidal activity (0-100 scale) TRZAW (15 g/Ha): 0 | Herbicidal activity (0-100 scale) TRZAW (30 g/Ha): 10 | Herbicidal activity (0-100 scale) TRZAW (60 g/Ha): 10 | Herbicidal activity (0-100 scale) TRZAW (125 g/Ha): 20 | Herbicidal activity (0-100 scale) TRZAW (250 g/Ha): 30 | Herbicidal activity (0-100 scale) TRZAW (500 g/Ha): 50 | Herbicidal activity (0-100 scale) VERPE (15 g/Ha): 70 | Herbicidal activity (0-100 scale) VERPE (30 g/Ha): 70 | Herbicidal activity (0-100 scale) VERPE (60 g/Ha): 70 | Herbicidal activity (0-100 scale) VERPE (125 g/Ha): 80 | Herbicidal activity (0-100 scale) VERPE (250 g/Ha): 80 | Herbicidal activity (0-100 scale) VERPE (500 g/Ha): 90
